Source: patent publication US20240066155A1, “DUAL MODE RADIOTRACER AND -THERAPEUTICS” (priority 2021, published 2024)
“And” between values parts separate entries of the source, which are not always exact repeats. Identical values can stand only once.

Tests used:
[1] = system: LNCaP cells; assay: PSMA-mediated internalization into LNCaP cells; type: cell-based; conditions: 1 h, 37° C., percentage of reference ligand ([125I]BA)KuE, n=3
Protocol: (§1) Competitive binding studies were determined on LNCaP cells (1.5×10^5 cells in 1 mL/well) after incubation at 4° C. for 1 h, using (((S)-1-carboxy-5-(4-([^125I]iodo)benzamido)pentyl)carbamoyl)-L-glutamic acid ([^125I]BA)KuE; 0.2 nM/well) as reference radioligand (n=3). Internalization studies of the radiolabeled ligands (1.0 nM/well) were performed on LNCaP cells (1.25×10^5 cells in 1 mL/well) at 37° C. for 1 h and accompanied by ([^125I]BA)KuE (0.2 nM/well), as reference. Data were corrected for non-specific binding and normalized to the specific internalization observed for the reference (n=3). A detailed description of the experimental procedures was previously published (Wurzer A, et al. J Nucl Med. 2020; 61: 735-742).

[2] = Lipophilicity, n-octanol/PBS (pH 7.4) distribution; type: physicochemical; conditions: n-octanol/PBS pH 7.4, 177Lu-labeled, n=6
Protocol: Approximately 1 MBq of the ^177Lu-labeled PSMA ligand was dissolved in 1 mL of a 1:1 mixture (v/v) of phosphate-buffered saline (PBS, pH 7.4) and n-octanol (n=6). After vigorous mixing of the suspension for 3 min, the vial was centrifuged at 15000×g for 3 min and 100 μL aliquots of both layers were measured in a γ-counter. Finally, the ratio of the radioactivity detected in the n-octanol sample and the PBS buffer was calculated and expressed as distribution ratio log D7.4.

[3] = target: T1, human serum albumin (Homo sapiens, UniProt P02768); assay: Binding to human serum albumin by albumin mediated size exclusion chromatography (AMSEC); type: in vitro ADME; conditions: size exclusion chromatography with HSA in the mobile phase, 177Lu-labeled
T1 construct: purchased Biowest, Nuaillé, France
T1 sequence (P02768 25-609): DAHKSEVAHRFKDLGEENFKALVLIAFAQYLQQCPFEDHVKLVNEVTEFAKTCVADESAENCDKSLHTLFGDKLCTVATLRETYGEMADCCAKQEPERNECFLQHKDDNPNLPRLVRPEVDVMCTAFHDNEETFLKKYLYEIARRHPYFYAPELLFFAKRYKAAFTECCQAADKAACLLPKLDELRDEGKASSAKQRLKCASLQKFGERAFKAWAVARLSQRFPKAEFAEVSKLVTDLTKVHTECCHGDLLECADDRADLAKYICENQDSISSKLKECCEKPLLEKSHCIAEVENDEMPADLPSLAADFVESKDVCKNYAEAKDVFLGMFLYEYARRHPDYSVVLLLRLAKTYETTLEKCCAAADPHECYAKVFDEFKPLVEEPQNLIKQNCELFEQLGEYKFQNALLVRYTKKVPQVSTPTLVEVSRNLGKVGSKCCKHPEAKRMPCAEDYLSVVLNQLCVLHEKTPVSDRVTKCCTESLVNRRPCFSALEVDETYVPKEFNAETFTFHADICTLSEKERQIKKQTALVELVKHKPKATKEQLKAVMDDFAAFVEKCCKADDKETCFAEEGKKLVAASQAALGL
Protocol: Binding of ^177Lu-labeled ligands to HSA was assessed by albumin mediated size exclusion chromatography (AMSEC). A gel filtration size exclusion column (Superdex 75 Increase 10/300 GL, GE Healthcare, Uppsala, Sweden) was used with HSA buffer at physiological concentration (700 μM, Biowest, Nuaillé, France) as mobile phase (constant flow rate of 0.8 mL/min at room temperature). For calibration purposes, a commercially available set of proteins (GE Healthcare, Buckinghamshire, UK) was used. Under these chromatographic conditions, the retention time of a radioligand (1.0 MBq, 10-20 GBq/μmol) depends on the extent of HSA/ligand interactions and thus, by means of the calibration with the aforementioned set of proteins, can be translated into an AMW (expressed in kDa) as a parameter allowing to quantify the extent of HSA binding. The detection window ranges between 2.3 kDa ([^18F]Fluoride; no HSA interaction) and 70.2 kDa (experimental molecular weight of HSA; maximum HSA interaction).

[4] = target: T2, PSMA (Homo sapiens, UniProt Q04609); assay: Competitive binding studies on LNCaP cells vs ([125I]BA)KuE (affinity, IC50); conditions: 1 h, 4° C., natLu complexes
T2 construct: endogenous in cells; host or cells: LNCaP cells
T2 sequence (Q04609 whole entry): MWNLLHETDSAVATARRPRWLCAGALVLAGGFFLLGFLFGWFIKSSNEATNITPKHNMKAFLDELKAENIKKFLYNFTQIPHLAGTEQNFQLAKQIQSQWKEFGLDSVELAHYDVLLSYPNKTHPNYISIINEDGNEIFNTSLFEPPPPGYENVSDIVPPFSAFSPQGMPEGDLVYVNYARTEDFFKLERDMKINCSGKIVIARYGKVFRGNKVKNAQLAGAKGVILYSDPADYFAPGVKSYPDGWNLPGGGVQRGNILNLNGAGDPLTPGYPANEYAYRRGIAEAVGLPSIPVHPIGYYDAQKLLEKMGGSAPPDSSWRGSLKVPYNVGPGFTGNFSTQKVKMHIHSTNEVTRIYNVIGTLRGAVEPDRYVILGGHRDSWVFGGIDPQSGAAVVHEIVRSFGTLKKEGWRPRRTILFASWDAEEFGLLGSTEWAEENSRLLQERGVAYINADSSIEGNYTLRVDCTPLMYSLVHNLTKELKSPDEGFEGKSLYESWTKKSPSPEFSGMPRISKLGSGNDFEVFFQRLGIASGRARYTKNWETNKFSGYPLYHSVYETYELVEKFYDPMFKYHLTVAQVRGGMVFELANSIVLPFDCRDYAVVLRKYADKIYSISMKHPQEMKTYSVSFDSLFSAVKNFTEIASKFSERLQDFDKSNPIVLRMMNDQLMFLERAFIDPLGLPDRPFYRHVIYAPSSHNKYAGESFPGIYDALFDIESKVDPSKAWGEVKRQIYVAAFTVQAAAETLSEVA
Protocol: as §1

SMILES | Internalization [% IBA-KuE] [1] | logD7.4 [2] | MWapp [kDa] (apparent molecular weight, AMW; HSA binding) [3] | IC50 ([4]; n=3) [nM] | IC50 ([4]; n=3, listed as [^natLu]PSMA-617) [nM]
O=C([O-])CN1CCN(CC(=O)[O-])CCN(CC(=O)NCC2CCC(C(=O)N[C@@H](Cc3ccc4ccccc4c3)C(=O)NCCCC[C@H](NC(=O)N[C@@H](CCC(=O)O)C(=O)O)C(=O)O)CC2)CCN(CC(=O)[O-])CC1.[177Lu+3] (some centres unmarked) [[^177Lu]PSMA-617] | 203±10 % IBA-KuE and 203.2 ± 10.1 % IBA-KuE | −4.1 ± 0.1 | 13.7 | 3.27 ± 0.19 | 3.3 ± 0.2
CC(C)(C)[Si](F)(c1ccc(C(=O)NC[C@@H](NC(=O)CC[C@H](C(=O)O)N2CCN(CC(=O)[O-])CCN(CC(=O)[O-])CCN(CC(=O)[O-])CC2)C(=O)N[C@H](CCCCNC(=O)CCC(=O)NCCC[C@@H](NC(=O)CC[C@H](NC(=O)N[C@@H](CCC(=O)O)C(=O)O)C(=O)O)C(=O)O)C(=O)O)cc1)C(C)(C)C.[Lu+3] [[^177Lu, ^19F]rhPSMA-7.1] | 137±6 % IBA-KuE and 137.4 ± 5.8 % IBA-KuE | −4.27 ± 0.24 | 26.3 | 3.11 ± 0.64 | 
CC(C)(C)[Si](F)(c1ccc(C(=O)NC[C@H](NC(=O)CC[C@H](C(=O)O)N2CCN(CC(=O)[O-])CCN(CC(=O)[O-])CCN(CC(=O)[O-])CC2)C(=O)N[C@H](CCCCNC(=O)CCC(=O)NCCC[C@@H](NC(=O)CC[C@H](NC(=O)N[C@@H](CCC(=O)O)C(=O)O)C(=O)O)C(=O)O)C(=O)O)cc1)C(C)(C)C.[Lu+3] [[^177Lu, ^19F]rhPSMA-7.2] | 197.3 ± 15.0 % IBA-KuE | −4.25 ± 0.29 | 31.7 | 2.88 ± 1.06 | 
CC(C)(C)[Si](F)(c1ccc(C(=O)NC[C@H](NC(=O)CC[C@@H](C(=O)O)N2CCN(CC(=O)[O-])CCN(CC(=O)[O-])CCN(CC(=O)[O-])CC2)C(=O)N[C@H](CCCCNC(=O)CCC(=O)NCCC[C@@H](NC(=O)CC[C@H](NC(=O)N[C@@H](CCC(=O)O)C(=O)O)C(=O)O)C(=O)O)C(=O)O)cc1)C(C)(C)C.[Lu+3] [[^177Lu, ^19F]rhPSMA-7.4] | 190.4 ± 10.5 % IBA-KuE | −4.10 ± 0.14 | 35.7 | 3.06 ± 1.51 | 
